Measured values taken from PubChem BioAssay (NCI).
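Each compound was tested at five concentrations against cells in 96-well plates for 48 hours. GI50 = concentration required for 50% inhibition of growth. TGI is the concentration that stops growth completely.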

Tests used:
Assay in all cases: DTP human tumour cell line panel, 48 h
MALME-3M melanoma = tested on: MALME-3M melanoma
SW-620 colon = tested on: SW-620 colon
SNB-19 CNS = tested on: SNB-19 CNS
PC-3 prostate = tested on: PC-3 prostate
MDA-MB-231 breast = tested on: MDA-MB-231 breast
TK-10 renal = tested on: TK-10 renal
HOP-92 NSCLC = tested on: HOP-92 NSCLC
CCRF-CEM leukemia = tested on: CCRF-CEM leukemia
OVCAR-4 ovarian = tested on: OVCAR-4 ovarian
IGROV1 ovarian = tested on: IGROV1 ovarian
786-0 renal = tested on: 786-0 renal
OVCAR-5 ovarian = tested on: OVCAR-5 ovarian
NCI/ADR-RES ovarian = tested on: NCI/ADR-RES ovarian
CAKI-1 renal = tested on: CAKI-1 renal
U251 CNS = tested on: U251 CNS
A498 renal = tested on: A498 renal
NCI-H226 lung = tested on: NCI-H226 lung
COLO 205 colon = tested on: COLO 205 colon
OVCAR-8 ovarian = tested on: OVCAR-8 ovarian
KM12 colon = tested on: KM12 colon
SF-268 CNS = tested on: SF-268 CNS
SK-MEL-28 melanoma = tested on: SK-MEL-28 melanoma
HCT-116 colon = tested on: HCT-116 colon
MOLT-4 leukemia = tested on: MOLT-4 leukemia
M14 melanoma = tested on: M14 melanoma
A549 NSCLC = tested on: A549 NSCLC
UACC-257 melanoma = tested on: UACC-257 melanoma
HL-60(TB) leukemia = tested on: HL-60(TB) leukemia

**Q.** How did the GI50 (MALME-3M melanoma) turn out when CC1=C(CC(=O)c2cccc([N+](=O)[O-])c2)C(=O)c2ccccc2C1=O was run?
**A.** Its GI50 is 4.95 µM.

**Q.** And the TGI (MALME-3M melanoma)?
**A.** Its TGI is 18.3 µM.

**Q.** And the GI50 (SW-620 colon)?
**A.** The GI50 was 4.01 µM.

**Q.** What about the TGI (SW-620 colon) of the same molecule?
**A.** The TGI was 18.9 µM.

**Q.** What about the GI50 (SNB-19 CNS) of the same molecule?
**A.** The GI50 was greater than 100 µM.

**Q.** And the TGI (SNB-19 CNS)?
**A.** Its TGI is greater than 100 µM.

**Q.** What about the GI50 (PC-3 prostate) of the same molecule?
**A.** The GI50 was 7.14 µM.

**Q.** What about the TGI (PC-3 prostate) of the same molecule?
**A.** Its TGI is 63.2 µM.

**Q.** What about the GI50 (MDA-MB-231 breast) of the same molecule?
**A.** Its GI50 is 1.89 µM.

**Q.** And the TGI (MDA-MB-231 breast)?
**A.** The TGI was 12.7 µM.

**Q.** What about the GI50 (TK-10 renal) of the same molecule?
**A.** The GI50 was 39.7 µM.

**Q.** And the TGI (TK-10 renal)?
**A.** Its TGI is 85.8 µM.

**Q.** And the GI50 (HOP-92 NSCLC)?
**A.** Its GI50 is 4.38 µM.

**Q.** And the TGI (HOP-92 NSCLC)?
**A.** Its TGI is 17.7 µM.

**Q.** What about the GI50 (CCRF-CEM leukemia) of the same molecule?
**A.** The GI50 was 3.19 µM.

**Q.** What about the TGI (CCRF-CEM leukemia) of the same molecule?
**A.** Its TGI is 19.3 µM.

**Q.** And the GI50 (OVCAR-4 ovarian)?
**A.** The GI50 was 1.86 µM.

**Q.** What about the TGI (OVCAR-4 ovarian) of the same molecule?
**A.** Its TGI is 7 µM.

**Q.** And the GI50 (IGROV1 ovarian)?
**A.** The GI50 was 4.62 µM.

**Q.** And the TGI (IGROV1 ovarian)?
**A.** Its TGI is 29 µM.

**Q.** What about the GI50 (786-0 renal) of the same molecule?
**A.** Its GI50 is 14.8 µM.

**Q.** And the TGI (786-0 renal)?
**A.** Its TGI is 35.4 µM.

**Q.** What about the GI50 (OVCAR-5 ovarian) of the same molecule?
**A.** The GI50 was 6.98 µM.

**Q.** And the TGI (OVCAR-5 ovarian)?
**A.** The TGI was 20.5 µM.

**Q.** What about the GI50 (NCI/ADR-RES ovarian) of the same molecule?
**A.** Its GI50 is 3.38 µM.

**Q.** And the TGI (NCI/ADR-RES ovarian)?
**A.** The TGI was 20.6 µM.

**Q.** What about the GI50 (CAKI-1 renal) of the same molecule?
**A.** Its GI50 is 21.7 µM.

**Q.** What about the TGI (CAKI-1 renal) of the same molecule?
**A.** The TGI was greater than 100 µM.

**Q.** And the GI50 (U251 CNS)?
**A.** Its GI50 is 6.74 µM.

**Q.** And the TGI (U251 CNS)?
**A.** Its TGI is 21.6 µM.

**Q.** And the GI50 (A498 renal)?
**A.** Its GI50 is 42.5 µM.

**Q.** And the TGI (A498 renal)?
**A.** Its TGI is greater than 100 µM.

**Q.** And the GI50 (NCI-H226 lung)?
**A.** Its GI50 is 18.7 µM.

**Q.** And the TGI (NCI-H226 lung)?
**A.** Its TGI is 46.5 µM.

**Q.** And the GI50 (COLO 205 colon)?
**A.** Its GI50 is 19.7 µM.

**Q.** And the TGI (COLO 205 colon)?
**A.** Its TGI is 37.6 µM.

**Q.** What about the GI50 (OVCAR-8 ovarian) of the same molecule?
**A.** The GI50 was 5.87 µM.

**Q.** And the TGI (OVCAR-8 ovarian)?
**A.** Its TGI is 48.9 µM.

**Q.** What about the GI50 (KM12 colon) of the same molecule?
**A.** The GI50 was 17.3 µM.

**Q.** What about the TGI (KM12 colon) of the same molecule?
**A.** Its TGI is 49.5 µM.

**Q.** And the GI50 (SF-268 CNS)?
**A.** The GI50 was 9.19 µM.

**Q.** And the TGI (SF-268 CNS)?
**A.** The TGI was 26.9 µM.

**Q.** What about the GI50 (SK-MEL-28 melanoma) of the same molecule?
**A.** Its GI50 is 3.54 µM.

**Q.** What about the TGI (SK-MEL-28 melanoma) of the same molecule?
**A.** Its TGI is 13.9 µM.

**Q.** And the GI50 (HCT-116 colon)?
**A.** Its GI50 is 3.01 µM.

**Q.** What about the TGI (HCT-116 colon) of the same molecule?
**A.** Its TGI is 10.6 µM.

**Q.** What about the GI50 (MOLT-4 leukemia) of the same molecule?
**A.** Its GI50 is 3.27 µM.

**Q.** And the TGI (MOLT-4 leukemia)?
**A.** Its TGI is 14.1 µM.

**Q.** And the GI50 (M14 melanoma)?
**A.** The GI50 was 6.66 µM.

**Q.** And the TGI (M14 melanoma)?
**A.** The TGI was 22.3 µM.

**Q.** What about the GI50 (A549 NSCLC) of the same molecule?
**A.** Its GI50 is 15.6 µM.

**Q.** And the TGI (A549 NSCLC)?
**A.** Its TGI is 36.2 µM.

**Q.** And the GI50 (UACC-257 melanoma)?
**A.** The GI50 was 3.94 µM.

**Q.** What about the TGI (UACC-257 melanoma) of the same molecule?
**A.** The TGI was 16.1 µM.

**Q.** What about the GI50 (HL-60(TB) leukemia) of the same molecule?
**A.** The GI50 was 2.88 µM.

**Q.** What about the TGI (HL-60(TB) leukemia) of the same molecule?
**A.** The TGI was 7.8 µM.
